In patent EP3696281A1, “ARGINASE AS BIOMARKER AND DRUG TARGET FOR PCOS” (Johann Wolfgang Goethe-Universität Frankfurt am Main, priority 2019, dated 2020):

Legend:
washed human platelets = experiment: Aggregation of washed human platelets elicited by thrombin or U46619 (aggregometer); format: cell-based; settings: 5 minutes; for effect of pre-treatment with arginase inhibitor on arginine-mediated inhibition of platelet aggregation: pre-incubation with inhibitor (Nor-NOHA 100 µmol/L, 30 minutes), then arginine 1 mmol/L, thrombin or U46619; for thrombin or thromboxane A2 analogue-induced aggregation of platelets: arginine 1 mmol/L, alone
From the text: (§1) Levels of ornithine (A), arginine (B), and the ratio of ornithine to arginine (C) in plasma from healthy donors or from PCOS patients, n= 22 (Student's t test). (D) Arginase activity in plasma from healthy donors or from PCOS patients, n=16 (Student's t test). (E) Levels of arginase-i in plasma from healthy donors or from PCOS patients, n=16 (Student's t test). (F) Levels of arginase-i in plasma from healthy donors or from PCOS patients in the presence or in the absence of microparticles, n=16 (ANOVA and Newman-Keuls post-test). (G) Levels of platelet-derived microparticles (PMPs) in plasma from healthy donors or from PCOS patients, n=17 (Student's t test). (H) Levels of arginase-i measured by flow cytometry in PMPs from healthy donors and from PCOS patients, n=17.
Human platelets were obtained by centrifugation (900g, 7 minutes) of platelet-rich plasma, as described. […] The resulting platelet-poor plasma was collected and frozen at -80°C for further evaluation.
Platelet aggregation. Aggregation of washed human platelets (4x10^8platelets/mL) was measured using an 8-channel aggregometer (PAP8, Mölab, Germany).

arginase = experiment: Arginase activity in platelets incubated with arginase inhibitor, then lysed (MAK112 kit); format: cell-based, human; settings: 30 minutes, P<0.05
From the text: as §1, with “n=17. […]” for “n=17.”
Given that platelets are the main source of plasma arginase in PCOS patients, the effect of arginase inhibitor on platelet arginase activity and function was assessed. […]
Arginase activity was determined in plasma or in platelets using commercially available kits (MAK112, Sigma, Steinheim, Germany), according to manufacturer's instructions.

SMILES | effect of pre-treatment with arginase inhibitor on arginine-mediated inhibition of platelet aggregation (washed human platelets; platelets from PCOS patients) | effect of pre-treatment with arginase inhibitor on arginine-mediated inhibition of platelet aggregation (washed human platelets; platelets from healthy donors) | arginase activity (arginase; platelets incubated with L-norvaline 10 mmol/L) | arginase activity (arginase; platelets incubated with nor-NOHA 100 µmol/L) | thrombin or thromboxane A2 analogue-induced aggregation of platelets (washed human platelets; platelets from PCOS patients) | thrombin or thromboxane A2 analogue-induced aggregation of platelets (washed human platelets; platelets from healthy donors)
CCC[C@H](N)C(=O)O [L-norvaline] | significantly revealed the inhibitory effects of arginine | did not have additional effect on arginine-mediated platelet inhibition | significantly inhibited arginase activity | – | – | –
N=C(NO)NCC[C@H](N)C(=O)O [NorNOHA, Nω-hydroxy-nor-L-arginine] | significantly revealed the inhibitory effects of arginine | did not have additional effect on arginine-mediated platelet inhibition | – | significantly inhibited arginase activity | – | –
N=C(N)NCCC[C@H](N)C(=O)O [arginine] | – | – | – | – | did not affect the aggregation | inhibited thrombin or thromboxane A2 analogue-induced aggregation
